“And” between values parts separate entries of the source, which are not always exact repeats. Identical values can stand only once. Like-named read-outs stand apart in the source and are kept apart here.
Columns and labels:
ICU patients [1] = assay: Phase III multicenter ICU sedation trial, Trial 2 (midazolam and morphine as rescue)
From the text: (§1) Two Phase III dexmedetomidine multicenter clinical trials (Trial 1 and Trial 2) have been conducted in ICU sedation in Europe and Canada. Each trial had two parts, i.e., an open-label part (Part I) and double-blind, randomized, placebo-controlled part (Part II). The trials were designed to evaluate the reduction in requirements for ICU sedation (as measured by administration of other sedative/analgesic agents) in patients receiving dexmedetomidine. The use of propofol and morphine for sedation and analgesia, respectively, was evaluated in one trial (Trial 1), and midazolam and morphine in the other trial (Trial 2).
(§2) In Part I of the trials patients were to be administered a 6.0 μg/kg/h loading dose of dexmedetomidine over a 10-minute period, followed by an initial maintenance infusion of 0.4 μg/kg/h. During Part II of the study, patients were randomly assigned to receive either placebo (0.9% sodium chloride solution) or dexmedetomidine. […] The dexmedetomidine dosing protocol was the same as in the Part I of the study. […] Following extubation, the infusion rate was to be adjusted to achieve a Ramsay Sedation Score of 2 or higher.
(§3) During the 10-minute loading dose, additional medication was to be avoided, but propofol (0.2-mg/kg bolus) in Trial 1 and midazolam (1-mg bolus) in Trial 2 could be given if necessary. During dexmedetomidine infusion, rescue medications were limited to propofol (0.2 mg/kg IV boluses) in Trial 1 and midazolam ([…]) in Trial 2 for sedation and morphine for pain (2-mg IV boluses). After extubation, paracetamol was to be permitted for pain as clinically indicated. Propofol and midazolam were to be given only after increasing the dexmedetomidine infusion rate. Dexmedetomidine administration in Parts I and II was to begin within 1 hour of admission to the ICU and to be continued for 6 hours after extubation to a maximum of 24 hours total study drug infusion. Patients were observed and assessed for an additional 24 hours after cessation of dexmedetomidine.

[2] = system: postoperative CABG patients requiring mechanical ventilation in the ICU
Method: A double-blind, randomized, placebo-controlled study was conducted to evaluate the efficacy, safety, and titratability of dexmedetomidine in mechanically ventilated patients requiring sedation in the ICU. […] Twelve adult postoperative CABG patients requiring mechanical ventilation in the ICU who met the study selection criteria were eligible for participation.
The selection criteria were as follows. The patients required sedation for mechanical ventilation for a minimum of 8 hours following surgery, followed by continued sedation for 6 hours after extubation. The patients were not to have been intubated longer than 24 hours to be evaluable for the test. The patients received only morphine for management for pain and received none of the following medications during study drug administration: sedating agents other than midazolam, neuromuscular blocking agents except for insertion of the endotrachael tube, epidural or spinal analgesic/anesthetic agents.
Safety was evaluated through the monitoring of adverse events, cardiac monitoring, laboratory tests, vital signs, oxygen saturation, and concomitant medications.
Twelve patients were randomly assigned to receive either dexmedetomidine or placebo with rescue treatment for sedation with midazolam, as clinically indicated. Patients randomized to dexmedetomidine were to receive a 10-minute loading dose of 6.0 μg/kg/h, followed by an initial maintenance infusion. The rate of maintenance infusion was 0.4 μg/kg/h. The maintenance rate of infusion could be titrated in increments of 0.1 μg/kg/h to achieve and maintain a Ramsey Sedation Score of 3 or higher. The range for the maintenance infusion was to be kept between 0.2 and 0.7 μg/kg/h. Dexmedetomidine administration was to begin within one hour after admission to the ICU and continued until 6 hours after extubation. […] The placebo was 0.9% sodium chloride solution administered the same way dexmedetomidine was administered.

[3] = system: postoperative coronary artery bypass graft(s) patients (CABG), requiring sedation in the ICU
[4] = system: postsurgical ICU patients
From the text: as §1, §2, §3
The following 16 cases are from the above mentioned Part II of trials 1 and 2.

ICU patients [5] = assay: Phase III multicenter ICU sedation trial, Trial 1 (propofol and morphine as rescue); settings: for dexmedetomidine-treated patients who died: none considered related to dexmedetomidine
From the text: as §1, §2, §3

[6] = case 4, immediately after extubation

Cc1cccc([C@H](C)c2c[nH]cn2)c1C [dexmedetomidine, (+)-(S)-4-[1-(2,3-dimethylphenyl)ethyl]-1H-imidazole]
midazolam required for sedation, vs placebo (ICU patients [1]; Trial 2): significantly less
morphine required for pain, vs placebo (ICU patients [1]; Trial 2): significantly less
deaths among dexmedetomidine-treated patients (ICU patients [1]; Trial 2, Part I and Part II, five placebo-treated patients died): No deaths
speed of achieving sedation levels (ICU patients [1]; Trial 2, vs placebo-treated patients who received midazolam): more quickly
changes in systolic blood pressure, diastolic blood pressure and heart rate (ICU patients [1]; in vivo): consistent with the known pharmacological effect of α2-agonists
respiratory depression (ICU patients [1]; in vivo): no clinically apparent respiratory depression
safety and tolerability (ICU patients [1]; in vivo): safe and well tolerated
midazolam for sedation or morphine for pain required, vs placebo ([2]; human, in vivo): significantly less
respiratory depression ([2]; human, in vivo): no clinically apparent respiratory depression
safety and tolerability ([2]; human, in vivo): safe and well tolerated
need for midazolam rescue for sedation ([2]; six dexmedetomidine-sedated patients, difference to placebo in mean total midazolam dose p=0.010): did not require any midazolam
patients who required morphine for management of pain ([2]; vs five of six on placebo, mean total morphine dose difference p=0.040): One of six
patients who required morphine for pain ([3]; 12 patients, infusion 0.2 to 0.7 μg/kg/h): Two
patients with serious adverse events ([3]; 12 patients, circulatory failure and myocardial infarction, infarction had little or no temporal relationship to dexmedetomidine): One
quality of sedation ([3]; dexmedetomidine as only pharmaceutical): conveniently sedated, hemodynamically stable, and remained easily arousable
blood pressure and heart rate variability ([3]; during administration of dexmedetomidine): decreased
time until clinical effects of sedation became evident ([3]; iv loading 6 μg/kg/h over 10 min, then maintenance 0.2 or 0.4 μg/kg/h): 15 to 30 min
morphine doses required while receiving dexmedetomidine ([4]; case 1, 5 minutes before extubation): one
Ramsay Sedation Score ([4]; case 1, after the first hour): 3
Ramsay Sedation Score ([4]; case 1, during the first hour): 6
Ramsay Sedation Score ([4]; case 1, later): 2
analgesic requirement ([4]; case 2, during the 12-hour infusion 0.2 to 0.7 μg/kg/h): required no morphine or other analgesic
Ramsay Sedation Score ([4]; case 3, after the first hour): 4
Ramsay Sedation Score ([4]; case 3, during the first hour (baseline score, fully anaesthetized after surgery)): 6
midazolam and morphine requirement ([4]; case 3, maintenance 0.2 to 0.3 μg/kg/h): required no midazolam or morphine
Ramsay Sedation Score ([4]; case 3, subsequently): 3
midazolam required [4, 6]: 2 mg
morphine required [4, 6]: 2 mg
morphine dose required ([4]; case 5, after dexmedetomidine infusion was discontinued): 76 mg
midazolam dose received ([4]; case 5, at 46 minutes and again at 66 minutes after start of infusion): 2 mg
initial postoperative morphine requirements ([4]; case 5, during dexmedetomidine infusion): 24 mg
morphine requirement while on dexmedetomidine ([4]; case 6): required no morphine
morphine required ([4]; case 6, after extubation and cessation of infusion, before discharge from the ICU): 4 mg
midazolam administered, total ([4]; case 6, agitation over endotracheal tube at maximum allowable dose): 16 mg
morphine required ([4]; case 6, first few hours after return to the ward): ~50 mg
morphine and midazolam requirement ([4]; case 6, first hours of infusion): required no morphine or midazolam
Ramsey Sedation Score ([4]; case 6, maintenance 0.4 to 0.7 μg/kg/h): approximately 4
Ramsey Sedation Score ([4]; case 7, 0.4 titrated to 0.7 μg/kg/h): approximately 4
morphine requirements ([4]; case 7, first 6 hours in the ICU, graft failure with ongoing bleeding): fluctuated markedly
propofol and morphine requirement ([4]; case 8, after propofol discontinued at 3 hours, dexmedetomidine tapered to 0.2 μg/kg/h): No additional propofol or morphine was required
Ramsey Sedation Score ([4]; case 8, dexmedetomidine 0.7 μg/kg/h with propofol 4 mg/kg/h, oversedated): 6
Ramsey Sedation Score ([4]; case 9, while receiving dexmedetomidine): 3
additional sedative and analgesia requirement ([4]; case 10, during the infusion): required no additional sedatives and very little analgesia
Ramsey Sedation Score ([4]; case 10, intubated, infusion 0.4-0.7 μg/kg/h): 4
additional sedative requirement ([4]; case 11, history of excessive alcohol intake, infusion between 0.3 and 0.7 μ/kg/h): no additional sedatives were required
anxiolysis and orientation ([4]; case 12, high preoperative anxiety, infusion 0.2-0.5 μg/kg/h): calm, had no fear or apprehension, and was well oriented
achievement of desired level of sedation ([4]; case 13, FIG. 2): very easily achieved with little dose adjustment
morphine sulfate required (single dose) ([4]; case 13, at 6 hours into the study period): 2 mg
opiate requirement ([4]; case 14, before extubation): no opiate was required
Ramsey Sedation Score ([4]; case 14, first half hour): 6
morphine required (single injection) ([4]; case 14, moderate pain after extubation): 2 mg
Ramsey Sedation Score ([4]; case 14, remainder of ICU stay after titration (score of 2 or 3)): 2 and 3
Ramsey Sedation Score ([4]; case 15, infusion titrated): approximately 3
PaCO2 ([4]; in vivo): stable
blood pressure ([4]; in vivo): transient increase
blood pressure (hypotension) ([4]; in vivo): 70/40
haemodynamic instability ([4]; in vivo): No evidence of haemodynamic instability
hemodynamic profile ([4]; in vivo): smooth without hypotension or episodes of bradycardia
hypotension ([4]; in vivo): one episode of moderate hypotension
respiratory depressant effect ([4]; in vivo): absence of a respiratory depressant effect
respiratory depression ([4]; in vivo): no respiratory depression
morphine required for pain, vs placebo (ICU patients [5]; Trial 1): significantly less
propofol required for sedation, vs placebo (ICU patients [5]; Trial 1): significantly less
dexmedetomidine-treated patients who died (ICU patients [5]; Trial 1, Part I): three
dexmedetomidine-treated patients who died (ICU patients [5]; Trial 1, Part II, one placebo-treated patient died): three
speed of achieving sedation levels (ICU patients [5]; Trial 1, vs placebo-treated patients who received propofol): more quickly
changes in systolic blood pressure, diastolic blood pressure and heart rate (ICU patients [5]; in vivo): consistent with the known pharmacological effect of α2-agonists
respiratory depression (ICU patients [5]; in vivo): no clinically apparent respiratory depression
safety and tolerability (ICU patients [5]; in vivo): safe and well tolerated
